Data taken from ChEMBL document CHEMBL3885881, “DrugMatrix”.

Species on record: Rattus norvegicus
Experiment: DrugMatrix - Regimen: Daily Repeat
Type: toxicity, organism-based, Sprague-Dawley
Set-up: regimen Daily Repeat, gender Male, age 6-8 weeks
Conditions: in vivo, po, route oral GAVAGE, vehicle 100 % WATER; for ABSOLUTE BASOPHIL / ABSOLUTE EOSINOPHIL / ABSOLUTE LYMPHOCYTE / ABSOLUTE MONOCYTE / ABSOLUTE SEGMENTED NEUTROPHIL / BASOPHIL / EOSINOPHIL / ERYTHROCYTE COUNT / HEMATOCRIT / HEMOGLOBIN / LEUKOCYTE COUNT / LYMPHOCYTE / MEAN CORPUSCULAR HEMOGLOBIN / MEAN CORPUSCULAR HEMOGLOBIN CONCENTRATION / MEAN CORPUSCULAR VOLUME / MONOCYTE / NEUTROPHIL / NUCLEATED RED BLOOD CELLS / PLATELET COUNT: tissue Blood; for ALANINE AMINOTRANSFERASE / ALBUMIN / ALKALINE PHOSPHATASE / ASPARTATE AMINOTRANSFERASE / BLOOD UREA NITROGEN / CARBON DIOXIDE / CHLORIDE / CHOLESTEROL / CREATINE PHOSPHOKINASE / CREATININE / GLUCOSE / LACTATE DEHYDROGENASE / LIPASE / PHOSPHORUS / POTASSIUM / SODIUM / TOTAL BILIRUBIN / TOTAL PROTEIN / URIC ACID: tissue Plasma
[1] = 28 mg/kg, 120 h, dose level Low, time 5 day
[2] = 1500 mg/kg, 72 h, dose level High, time 3 day
[3] = 1500 mg/kg, 120 h, dose level High, time 5 day

Question: For CS(=O)(=O)c1ccc([C@@H](O)[C@@H](CO)NC(=O)C(Cl)Cl)cc1 [THIAMPHENICOL], which “ABSOLUTE BASOPHIL” value [1] is on record?
Answer: 0 CELLS/uL

Question: And the “ABSOLUTE EOSINOPHIL” value [1]?
Answer: 95.33 CELLS/uL

Question: What about the “ABSOLUTE LYMPHOCYTE” value [1] of the same molecule?
Answer: 6576.67 CELLS/uL

Question: What about the “ABSOLUTE MONOCYTE” value [1] of the same molecule?
Answer: 0 CELLS/uL

Question: What about the “ABSOLUTE SEGMENTED NEUTROPHIL” value [1] of the same molecule?
Answer: 828 CELLS/uL

Question: What about the BASOPHIL [1] of the same molecule?
Answer: 0%

Question: And the EOSINOPHIL [1]?
Answer: 1.33%

Question: What about the “ERYTHROCYTE COUNT” value [1] of the same molecule?
Answer: 5.62 x10E6/uL

Question: What about the HEMATOCRIT [1] of the same molecule?
Answer: 36.03%

Question: What about the HEMOGLOBIN [1] of the same molecule?
Answer: 13.5 G/DL

Question: What about the “LEUKOCYTE COUNT” value [1] of the same molecule?
Answer: 7.5 x10E3/uL

Question: And the LYMPHOCYTE [1]?
Answer: 87.67%

Question: What about the “MEAN CORPUSCULAR HEMOGLOBIN” value [1] of the same molecule?
Answer: 24.03 pg

Question: And the “MEAN CORPUSCULAR HEMOGLOBIN CONCENTRATION” value [1]?
Answer: 37.47 G/DL

Question: What about the “MEAN CORPUSCULAR VOLUME” value [1] of the same molecule?
Answer: 64.07 fL

Question: And the MONOCYTE [1]?
Answer: 0%

Question: And the NEUTROPHIL [1]?
Answer: 11%

Question: And the “NUCLEATED RED BLOOD CELLS” value [1]?
Answer: 0 /100WBC

Question: And the “PLATELET COUNT” value [1]?
Answer: 1264 x10E3/uL

Question: What about the “ALANINE AMINOTRANSFERASE” value [1] of the same molecule?
Answer: 51 u/L

Question: What about the ALBUMIN [1] of the same molecule?
Answer: 4.33 G/DL

Question: What about the “ALKALINE PHOSPHATASE” value [1] of the same molecule?
Answer: 379.67 u/L

Question: What about the “ASPARTATE AMINOTRANSFERASE” value [1] of the same molecule?
Answer: 78 u/L

Question: What about the “BLOOD UREA NITROGEN” value [1] of the same molecule?
Answer: 15 mg/dL

Question: What about the “CARBON DIOXIDE” value [1] of the same molecule?
Answer: 28 mmol/L

Question: What about the CHLORIDE [1] of the same molecule?
Answer: 101 MEQ/L

Question: And the CHOLESTEROL [1]?
Answer: 82.67 mg/dL

Question: And the “CREATINE PHOSPHOKINASE” value [1]?
Answer: 219 u/L

Question: And the CREATININE [1]?
Answer: 0.19 mg/dL

Question: And the GLUCOSE [1]?
Answer: 146.67 mg/dL

Question: What about the “LACTATE DEHYDROGENASE” value [1] of the same molecule?
Answer: 121 u/L

Question: What about the LIPASE [1] of the same molecule?
Answer: 8.33 u/L

Question: What about the PHOSPHORUS [1] of the same molecule?
Answer: 12.2 mg/dL

Question: And the POTASSIUM [1]?
Answer: 5.86 MEQ/L

Question: What about the SODIUM [1] of the same molecule?
Answer: 148.13 MEQ/L

Question: What about the “TOTAL BILIRUBIN” value [1] of the same molecule?
Answer: 0.23 mg/dL

Question: What about the “TOTAL PROTEIN” value [1] of the same molecule?
Answer: 6.37 G/DL

Question: And the “URIC ACID” value [1]?
Answer: 1.07 mg/dL

Question: And the “ABSOLUTE BASOPHIL” value [2]?
Answer: 0 CELLS/uL

Question: And the “ABSOLUTE EOSINOPHIL” value [2]?
Answer: 242.33 CELLS/uL

Question: And the “ABSOLUTE LYMPHOCYTE” value [2]?
Answer: 11370.67 CELLS/uL

Question: What about the “ABSOLUTE MONOCYTE” value [2] of the same molecule?
Answer: 0 CELLS/uL

Question: What about the “ABSOLUTE SEGMENTED NEUTROPHIL” value [2] of the same molecule?
Answer: 1353.67 CELLS/uL

Question: What about the BASOPHIL [2] of the same molecule?
Answer: 0%

Question: What about the EOSINOPHIL [2] of the same molecule?
Answer: 1.67%

Question: And the “ERYTHROCYTE COUNT” value [2]?
Answer: 4.88 x10E6/uL

Question: What about the HEMATOCRIT [2] of the same molecule?
Answer: 32.03%

Question: What about the HEMOGLOBIN [2] of the same molecule?
Answer: 12.37 G/DL

Question: What about the “LEUKOCYTE COUNT” value [2] of the same molecule?
Answer: 12.97 x10E3/uL

Question: And the LYMPHOCYTE [2]?
Answer: 87.67%

Question: What about the “MEAN CORPUSCULAR HEMOGLOBIN” value [2] of the same molecule?
Answer: 25.37 pg

Question: And the “MEAN CORPUSCULAR HEMOGLOBIN CONCENTRATION” value [2]?
Answer: 38.6 G/DL

Question: And the “MEAN CORPUSCULAR VOLUME” value [2]?
Answer: 65.7 fL

Question: And the MONOCYTE [2]?
Answer: 0%

Question: What about the NEUTROPHIL [2] of the same molecule?
Answer: 10.67%

Question: And the “NUCLEATED RED BLOOD CELLS” value [2]?
Answer: 0 /100WBC

Question: What about the “PLATELET COUNT” value [2] of the same molecule?
Answer: 1202.33 x10E3/uL

Question: And the “ALANINE AMINOTRANSFERASE” value [2]?
Answer: 42.67 u/L

Question: What about the ALBUMIN [2] of the same molecule?
Answer: 4.27 G/DL

Question: And the “ALKALINE PHOSPHATASE” value [2]?
Answer: 298 u/L

Question: What about the “ASPARTATE AMINOTRANSFERASE” value [2] of the same molecule?
Answer: 82 u/L

Question: What about the “BLOOD UREA NITROGEN” value [2] of the same molecule?
Answer: 18 mg/dL

Question: And the “CARBON DIOXIDE” value [2]?
Answer: 24.33 mmol/L

Question: And the CHLORIDE [2]?
Answer: 110.67 MEQ/L

Question: What about the CHOLESTEROL [2] of the same molecule?
Answer: 82.67 mg/dL

Question: What about the “CREATINE PHOSPHOKINASE” value [2] of the same molecule?
Answer: 343.67 u/L

Question: What about the CREATININE [2] of the same molecule?
Answer: 0.16 mg/dL

Question: What about the GLUCOSE [2] of the same molecule?
Answer: 201 mg/dL

Question: And the “LACTATE DEHYDROGENASE” value [2]?
Answer: 99 u/L

Question: And the LIPASE [2]?
Answer: 8.33 u/L

Question: And the PHOSPHORUS [2]?
Answer: 12 mg/dL

Question: And the POTASSIUM [2]?
Answer: 5.55 MEQ/L

Question: What about the SODIUM [2] of the same molecule?
Answer: 148.1 MEQ/L

Question: What about the “TOTAL BILIRUBIN” value [2] of the same molecule?
Answer: 0.1 mg/dL

Question: And the “TOTAL PROTEIN” value [2]?
Answer: 5.8 G/DL

Question: What about the “URIC ACID” value [2] of the same molecule?
Answer: 2.17 mg/dL

Question: And the “ABSOLUTE BASOPHIL” value [3]?
Answer: 0 CELLS/uL

Question: What about the “ABSOLUTE EOSINOPHIL” value [3] of the same molecule?
Answer: 0 CELLS/uL

Question: What about the “ABSOLUTE LYMPHOCYTE” value [3] of the same molecule?
Answer: 10293 CELLS/uL

Question: What about the “ABSOLUTE MONOCYTE” value [3] of the same molecule?
Answer: 39 CELLS/uL

Question: What about the “ABSOLUTE SEGMENTED NEUTROPHIL” value [3] of the same molecule?
Answer: 901.33 CELLS/uL

Question: What about the BASOPHIL [3] of the same molecule?
Answer: 0%

Question: And the EOSINOPHIL [3]?
Answer: 0%

Question: What about the “ERYTHROCYTE COUNT” value [3] of the same molecule?
Answer: 5.44 x10E6/uL

Question: What about the HEMATOCRIT [3] of the same molecule?
Answer: 34.1%

Question: What about the HEMOGLOBIN [3] of the same molecule?
Answer: 13.07 G/DL

Question: What about the “LEUKOCYTE COUNT” value [3] of the same molecule?
Answer: 11.23 x10E3/uL

Question: What about the LYMPHOCYTE [3] of the same molecule?
Answer: 91.67%

Question: And the “MEAN CORPUSCULAR HEMOGLOBIN” value [3]?
Answer: 24.03 pg

Question: And the “MEAN CORPUSCULAR HEMOGLOBIN CONCENTRATION” value [3]?
Answer: 38.33 G/DL

Question: And the “MEAN CORPUSCULAR VOLUME” value [3]?
Answer: 62.67 fL

Question: And the MONOCYTE [3]?
Answer: 0.33%

Question: What about the NEUTROPHIL [3] of the same molecule?
Answer: 8%

Question: What about the “NUCLEATED RED BLOOD CELLS” value [3] of the same molecule?
Answer: 0 /100WBC

Question: What about the “PLATELET COUNT” value [3] of the same molecule?
Answer: 1190 x10E3/uL

Question: What about the “ALANINE AMINOTRANSFERASE” value [3] of the same molecule?
Answer: 44.33 u/L

Question: What about the ALBUMIN [3] of the same molecule?
Answer: 4.33 G/DL

Question: And the “ALKALINE PHOSPHATASE” value [3]?
Answer: 313.67 u/L

Question: And the “ASPARTATE AMINOTRANSFERASE” value [3]?
Answer: 87 u/L

Question: What about the “BLOOD UREA NITROGEN” value [3] of the same molecule?
Answer: 21.33 mg/dL

Question: And the “CARBON DIOXIDE” value [3]?
Answer: 24.33 mmol/L

Question: What about the CHLORIDE [3] of the same molecule?
Answer: 103 MEQ/L

Question: What about the CHOLESTEROL [3] of the same molecule?
Answer: 75.67 mg/dL

Question: And the “CREATINE PHOSPHOKINASE” value [3]?
Answer: 564.67 u/L

Question: What about the CREATININE [3] of the same molecule?
Answer: 0.21 mg/dL

Question: What about the GLUCOSE [3] of the same molecule?
Answer: 159 mg/dL

Question: And the “LACTATE DEHYDROGENASE” value [3]?
Answer: 210 u/L

Question: And the LIPASE [3]?
Answer: 8.33 u/L

Question: What about the PHOSPHORUS [3] of the same molecule?
Answer: 11.87 mg/dL

Question: And the POTASSIUM [3]?
Answer: 6.38 MEQ/L

Question: What about the SODIUM [3] of the same molecule?
Answer: 144.57 MEQ/L

Question: What about the “TOTAL BILIRUBIN” value [3] of the same molecule?
Answer: 0.13 mg/dL

Question: And the “TOTAL PROTEIN” value [3]?
Answer: 5.97 G/DL

Question: And the “URIC ACID” value [3]?
Answer: 1.67 mg/dL
